Measured values as given in patent US20140341922A1, “Method for Overcoming Tolerance to Targeted Anti-Cancer Agent” (SUN R&DB Foundation, priority 2011, published 2014).

Legend:
[1] = tested on: integrin β3/Src signaling; experiment: Western blot after integrin β3 or Src blockade; format: cell-based, human; design: p-EGFR, p-Src, and p-Akt levels: dose or concentration left out as unconfirmed
Method: Specifically, cixutumumab-resistant cells (LN686 and FADU) and cixutumumab-sensitive cells (OSC19) grown in PCPs were treated with B3A […] or PP2 […] for 1 hour prior to activation with IGF-1 (100 ng/ml).
In addition, the LN686 and FADU cells grown in the PCPs were untreated or treated with cixutumumab ([…]), PP2 (10 μM), an anti-integrin β1 monoclonal antibody (A11B2, 10 μg/ml), Ad-EV or Ad-CSK (10 pfu/cell) for 7 days prior to stimulation with IGF-1 (100 ng/ml, 30 min), and to detect the proteins, western blot analysis was performed.

[2] = tested on: LN686, FADU, H226B, OSC19, and UMSCC38 cells; experiment: MTS cell proliferation, combined treatment in PCPs; format: cell-based, human; conditions: 7 days
Method: Cells were cultured in 96-well poly(poly-2-hydroxyethyl methacrylate [HEMA])-coated plates (PCPs) or ultra-low attached plates (UAPs). Control IgG1 (25 μg/ml), cixutumumab (25 μg/ml), PP2 (10 μM), and an integrin β3 neutralizing antibody B3A (10 μg/ml) were diluted in culture media containing 10% FBS or IGF-1 and treated alone or in combination. To examine the effect on cancer cell proliferation, a 3-(4,5-dimethylthiazol-2-yl)-2,5-diphenyltetrazolium bromide (MTT) or 3-(4,5-dimethylthiazol-2-yl)-5-(3-carboxymethoxyphenyl)-2-(4-sulfophenyl)-2H-tetrazolium (MTS) assay was performed, and to evaluate the effect on anchorage-independent colony formation, a soft agar colony formation assay was performed according to a method in our previous report (Morgillo et al., 2006).
In addition, the LN686, FADU, H226B, OSC19, and UMSCC38 cells grown in PCPs were untreated or treated with cixutumumab (25 μg/ml), anti-integrin β3 mAb (αβ3, 10 μg/ml), PP2 (10 μM), or a combination thereof for 7 days. Each bar represents the mean±SD of 6 wells treated with the same sample in one representative experiment.

## CC(C)(C)n1nc(-c2ccc(Cl)cc2)c2c(N)ncnc21 [PP2]
[1]; LN686, FADU and OSC19, 6 h
  p-EGFR, p-Src, and p-Akt levels: marked decreases
[1]; LN686 or FaDu cells, integrin β3 mAb 100 μg/ml or PP2 10 μM
  cixutumumab-induced increases in p-Src, p-FAK, p-EGFR, p-Akt, and p-mTOR: almost completely blocked
[2]; cixutumumab-resistant cells (LN686, FADU, H226B)
  antiproliferative activities of cixutumumab on combined treatment: significantly augmented
[2]; cixutumumab-sensitive cells (OSC19 and UMSCC38)
  antiproliferative activities of cixutumumab on combined treatment: not
